The assay concerns CEM cells HIV-1 protection, formazan growth assay. Nature of the assay: NCI AIDS Antiviral Assay. The conditions noted are these: for IC50: measured here: growth of uninfected CEM cells. Summed up: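 Screen of anti-HIV-1 activity in human CEM cells using a formazan-based growth measurement at five drug concentrations. Hits with 50% or greater protection were repeated, and confirmation required reproducible complete protection.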

The source made the active and inactive calls.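 How the source made its calls: active means compounds giving half or more protection of infected cells from virus-caused growth loss, again on retest; inactive means the rest.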

In the case of `CN1C[C@H]2[C@@H](C1=O)[C@H](c1ccccc1)ON2C`, the EC50 (commonly the concentration needed to bring the measured effect to its halfway point) is above 200 µM and the half-inhibitory concentration (IC50) – broadly, the concentration at which inhibition is half-maximal – was above 200 µM.
Turning to `CN1C/C(=C\c2cccs2)C2=NC(=S)NC(c3cccs3)C2C1` (stereo unspecified), the EC50 is above 200 µM and the IC50 amounted to 36.3 µM.
In the case of `Cc1ccc(-n2cnc(C(=N)C#N)c2N)cc1`, the EC50 is above 200 µM and the half-inhibitory concentration (IC50) turned out to be 123 µM.
On the same counts, the results for `CC1CN(S(=O)(=O)c2cccc3cnccc23)CCN1` (stereo unspecified) are above 126 µM and 38 µM.
For `CC1(C)C(=O)C(C(Cl)(Cl)Cl)=C(Cl)C(=O)C1(Cl)Cl`, the EC50 is above 200 µM and the IC50 is 25.7 µM.
On the same counts, the results for `NS(=O)(=O)c1ccc(NNc2c3ccccc3nc3ccccc23)cc1` are above 200 µM and 10.7 µM.
As to `C[n+]1cccc2ccc3cccnc3c21`, the EC50 was above 200 µM and the IC50 was determined as 7.94 µM.
Taken in the same sequence, the figures for `O=C1C=C(c2ccccc2)C(c2ccccc2)C1O` (stereo unspecified) were above 200 µM and 135 µM.
Take `COc1cccc2c1C(=O)c1c(O)c3c(c(O)c1C2=O)C[C@@](O)(C(C)O)C[C@@H]3OC1CC(N)C(O)C(C)O1` (stereo partly specified): the outcome was inactive.
As to `COc1cc(/C=C(\NC(=O)c2ccccc2)c2nc3ccc([N+](=O)[O-])cc3[nH]2)cc(OC)c1OC`, the outcome was inactive.
On to `CCOC(=O)c1c[nH]c2cc3c(cc2c1=O)CCS3`, for which the EC50 is above 200 µM and the half-maximal inhibitory concentration (IC50) turned out to be 115 µM.
In the case of `Cn1c(=O)[nH]c2[nH]c3ccccc3c2c1=O`, the EC50 was above 200 µM and the IC50 was above 200 µM.
Regarding `S=C(N/N=C(\C(=N/NC(=S)N1CCCCC1)c1ccccn1)c1ccccn1)N1CCCCC1`, the EC50 is above 200 µM and the IC50 was 39.8 µM.
As to `O=C1/C(=C/c2ccc(F)cc2)CCC/C1=C\c1ccc(F)cc1`, the EC50 is above 23.4 µM and the IC50 is above 23.4 µM.
On to `CCCc1cc(=O)oc2c3c(cc(OC)c12)O[C@H](C)[C@H](C)C3=O`, for which the EC50 is above 200 µM and the half-inhibitory concentration (IC50) stood at 47.9 µM.
Turning to `COCCOCOC(C)(C)[C@H](CCOC(C)=O)O[Si](c1ccccc1)(c1ccccc1)C(C)(C)C`, the result was inactive.
In the case of `O=c1scc(-c2ccc(C(F)(F)F)cc2)s1`, the EC50 was above 85.1 µM and the half-maximal inhibitory concentration (IC50) was above 85.1 µM.
As for `O=Nc1c(-c2ccccc2)nc2cc(-c3ccccc3)[nH]n12`, the EC50 is above 18.2 µM and the IC50 is above 18.2 µM.
For `O=C(O)C12C3C4C1C1C2C3C41I` (stereo unspecified), the EC50 was above 479 µM and the IC50 is above 479 µM.
`C=CCN(c1cc(OC)c(NC(C)=O)cc1[N+](=O)[O-])S(C)(=O)=O`: the EC50 was above 200 µM and the IC50 was above 200 µM.
On to `COC1CCC(O)C(CO)O1` (stereo unspecified), for which the result was inactive.
On to `CCOC(=O)c1nc2cc(C(F)(F)F)ccc2nc1Oc1ccc(C#N)cc1`, for which the EC50 is above 200 µM and the IC50 came to 93.3 µM.
Take `CC(C)(C)CNC(=O)NCn1cc(-c2ccccc2)nn1`: the EC50 was above 200 µM and the IC50 was above 200 µM.
Take `COC1(OC)CCC2(C)OC(c3ccccc3)C1O2` (stereo unspecified): the outcome was inactive.
On to `CC(=O)Nc1ccc(NNc2cc(=O)n(C)c(=O)[nH]2)cc1`, for which the EC50 was above 200 µM and the half-inhibitory concentration (IC50) turned out to be 2.4 µM.
As for `CCOC(=O)C(Cc1ccccc1)P(=O)(OCC)OCC` (stereo unspecified), the EC50 was above 200 µM and the concentration for half-maximal inhibition (IC50) turned out to be 158 µM.
Consider `C/C(=N/O)C1CC(C)([N+](=O)[O-])CCC1(C)O` (stereo unspecified), for which the EC50 is above 200 µM and the IC50 was above 200 µM.
Regarding `CCCCNC(=S)OCCC(C)CCCC(C)C` (stereo unspecified), the outcome was inactive.
Regarding `O=C1C(C(O)(C(F)(F)F)C(F)(F)F)CCC1C(O)(C(F)(F)F)C(F)(F)F` (stereo unspecified), the result was inactive.
On to `O=[N+]([O-])c1cccc(-c2csc(NNC3=NC/C(=C/c4ccc5c(c4)OCO5)S3)n2)c1`, for which the EC50 is above 200 µM and the half-inhibitory concentration (IC50) came out at 117 µM.
As for `CCC(C#N)NCc1ccc(CNC(C#N)CC)cc1` (stereo unspecified), the EC50 was above 200 µM and the concentration for half-maximal inhibition (IC50) was above 200 µM.
`[O-]/C(=C\[P+](c1ccccc1)(c1ccccc1)c1ccccc1)c1ccccc1`: the EC50 is above 200 µM and the concentration for half-maximal inhibition (IC50) turned out to be 32.4 µM.
Consider `C(=C(c1ccccc1)c1ccccc1)=C(c1ccccc1)c1ccccc1`, for which the concentration giving a half-maximal response (EC50) is above 28.8 µM and the IC50 was above 28.8 µM.
On to `COCO[C@@H]1C(=O)N(c2ccccc2)[C@@H]1c1ccccc1`, for which the EC50 was above 178 µM and the IC50 is above 178 µM.
Turning to `CCOC(=O)C[C@@]12CCCNC1(C)CCc1ccccc12` (stereo partly specified), the outcome was inactive.
Turning to `COC(=O)C1C2C(=O)NC(=O)C2C(c2ccc(-c3ccccc3)cc2)N1C1CCCCC1` (stereo unspecified), the EC50 was above 135 µM and the half-maximal inhibitory concentration (IC50) was found to be 19.1 µM.
As for `O=C(O)c1ccccc1P(=O)(O)c1ccccc1`, the EC50 is above 200 µM and the IC50 is above 200 µM.
For `O=c1cc(S(=O)(=O)Cc2ccccc2)[nH]c(=O)[nH]1`, the EC50 was above 135 µM and the IC50 is above 135 µM.
`Oc1ccc([Te]CCNCC[Te]c2ccc(O)cc2)cc1`: the EC50 was above 10 µM and the half-maximal inhibitory concentration (IC50) is 5.89 µM.
With `COC(=O)[C@@H]1C[C@@H](OS(=O)(=O)c2ccc(C)cc2)CN1C(=O)OCc1ccccc1`, the outcome was inactive.
Take `CC(C)/C(Cl)=N\OC(=O)Nc1cccc(F)c1`: the EC50 is above 200 µM and the IC50 was 9.77 µM.
As to `CC1C2Cc3ccc(O)cc3C1(C)CCN2C` (stereo unspecified), the EC50 is above 129 µM and the IC50 was above 129 µM.
For the compound `Cc1coc2c1[C@@H](O)[C@]1(C)[C@@H](C)CC[C@H](O)[C@]1(O)C2`, the EC50 is above 200 µM and the concentration for half-maximal inhibition (IC50) was above 200 µM.
On to `NC(=O)[N+](=CC(=S)Nc1ccccc1Cl)C(N)=O`, for which the EC50 was above 200 µM and the IC50 was above 200 µM.
For `COc1cccc(C=C(C(C)=O)C(C)=O)c1`, the EC50 is above 120 µM and the IC50 was 58.9 µM.
In the case of `O=C1c2ccccc2C(=O)c2c(NCCNCCO)ccc(O)c21`, the outcome was inactive.
As to `O=C(O)CCCNS(=O)(=O)c1ccc2ccccc2c1`, the outcome was inactive.
Turning to `O=C1c2cc(Cl)ccc2NC(=NCCCl)C2CSCN12` (stereo unspecified), the EC50 was above 200 µM and the IC50 was above 200 µM.
Take `CCOC1OC2O[C@]3(C)CCC4C(C)CCC([C@H]1C)C24OO3` (stereo partly specified): the outcome was inactive.
With `CCN(CC)P1(=O)C=C(C)C2C1C1C=C(C)C2P1(=O)N(CC)CC` (stereo unspecified), the outcome was inactive.
For `CN(C)c1ccc(/C(Br)=C2\OC(=O)c3ccccc32)cc1`, the EC50 was above 200 µM and the IC50 came out at 112 µM.
On to `COc1ccc(CCN(C)CCCC2(C#N)c3ccccc3-c3ccccc32)cc1OC`, for which the EC50 is above 60.3 µM and the 50% inhibitory concentration (IC50) stood at 47.9 µM.
As for `COC(=O)c1ccccc1NC(=S)NN(C)C`, the EC50 is above 200 µM and the half-maximal inhibitory concentration (IC50) was determined as 151 µM.
Turning to `O=C1OCCSCCOCCSCCOC(=O)c2cccc1n2`, the outcome was inactive.
Take `Cn1ncnc1CCc1ccccc1`: the EC50 is above 32.4 µM and the IC50 is above 32.4 µM.
On to `CCCCCC=C(c1cc(Cl)c(O)c(C(=O)NO)c1)c1cc(Cl)c(O)c(C(=O)NO)c1`, for which the EC50 was above 200 µM and the IC50 was determined as 35.5 µM.
As for `COC(=O)C1=C(C(=O)OC)c2cc(OC)ccc2C(C(=S)N(C)C)S1` (stereo unspecified), the EC50 is above 200 µM and the IC50 is above 200 µM.
As for `CCC(C)[C@H](NC(=O)C1CCCN1C[C@H](O)[C@H](Cc1ccccc1)NC(=O)[C@@H](CC(N)=O)NC(=O)OCc1ccccc1)C(=O)N[C@H](Cc1ccccc1)C(=O)NCCCC[C@@H]1NC(=O)[C@H](CC(C)C)N(C)C(=O)[C@H](C(C)C)NC(=O)[C@H](CC(C)C)N(C)C(=O)[C@@H](CO)N(C)C(=O)[C@H](CC)NC(=O)[C@H]([C@H](O)C(C)C)N(C)C(=O)[C@H](C(C)C)N(C)C(=O)[C@H](CC(C)C)N(C)C(=O)[C@H](CC(C)C)N(C)C(=O)[C@@H](C)NC1=O` (stereo partly specified), the EC50 was 0.501 µM and the IC50 came out at 67.6 µM.
On to `CCN(CC)CCOc1ccc(/C(C#N)=C/c2ccccc2OCCN(CC)CC)cc1`, for which the EC50 is above 200 µM and the IC50 amounted to 2.63 µM.
Turning to `Clc1ccc(C=NC23CC4CC(CC(C4)C2)C3)cc1Cl`, the EC50 was above 200 µM and the concentration for half-maximal inhibition (IC50) came out at 95.5 µM.
For `CC(C)(C)N=c1n(C(C)(C)C)oc(=O)n1C(C)(C)C`, the EC50 was above 151 µM and the IC50 came to 135 µM.
Consider `COc1ccc(-c2onc(-c3c(C)cc(C)cc3C)c2C2=NCCCN2)cc1`, for which the EC50 was above 50.1 µM and the IC50 was above 50.1 µM.
As to `Brc1cccc[n+]1Cc1cccc(C[n+]2ccccc2Br)c1`, the EC50 is 0.0631 µM and the IC50 turned out to be 141 µM.
On to `CCOC(=O)C(=O)Nc1c(F)cc(F)cc1Br`, for which the EC50 is above 813 µM and the IC50 is above 813 µM.
In the case of `CC[C@@H]1CC2CN3CCc4c([nH]c5cc(OC)ccc45)C(C(=O)OC)(C2)C13` (stereo partly specified), the result was inactive.
Regarding `CCOC(=O)/C(F)=C/c1cccc([N+](=O)[O-])c1`, the EC50 is above 151 µM and the IC50 is above 151 µM.
Consider `Nc1nc2ccc(CO)nc2c(=O)[nH]1`, for which the EC50 was above 200 µM and the IC50 is above 200 µM.
Turning to `CCCCCC(C(O)C#N)C(O)(C(F)(F)F)C(F)(F)F` (stereo unspecified), the EC50 is above 200 µM and the IC50 was 52.5 µM.
On to `COc1c2cc([N+](=O)[O-])cc1CN(C(=O)C(F)(F)F)CCOCCN(C(=O)C(F)(F)F)C2`, for which the EC50 was above 200 µM and the IC50 is above 200 µM.
Consider `NC(N)=NS(=O)(=O)c1ccc(Nc2c3ccccc3nc3ccc(C(=O)Nc4ccc(S(N)(=O)=O)cc4)cc23)cc1`, for which the EC50 was above 200 µM and the half-maximal inhibitory concentration (IC50) was above 200 µM.
Take `S=C1NC(c2ccco2)N2C(=S)NC(c3ccco3)N12` (stereo unspecified): the result was inactive and the IC50 is above 200 µM.
As to `CC1(C)O[C@H]2OC(CO[Si](C)(C)C(C)(C)C)C(N=[N+]=[N-])[C@H]2O1` (stereo partly specified), the EC50 was above 20 µM and the half-maximal inhibitory concentration (IC50) is above 20 µM.
Consider `O=c1ccn(C2CC(CO)C(CO)C2)c(=O)[nH]1` (stereo unspecified), for which the EC50 is above 105 µM and the IC50 is above 105 µM.

For the origin of these results see PubChem BioAssay AID179 (DTP/NCI, 2004).
